{"source": "patent US7291730B2", "about": "“Pyrimidine compounds and their use” (Sumitomo Chemical Company, Limited, priority 2000, dated 2007)", "data": [{"test_system": "Western Flower Thrips (Frankliniella occidentalis)", "assay": "Insecticidal test against western flower thrips, sprayed cucumber leaves (Test Example 3)", "assay_type": "in vivo", "conditions": "500 ppm, sprayed 20 ml/cup onto cucumber, thirty larvae on cut first foliage leaves, after 7 days", "method": "A formulation of a test compound obtained in Formulation Example 5 was diluted with water so that the active ingredient concentration came to 500 ppm to prepare a test spray solution. The seeds of cucumber were planted in polyethylene cups and grown until their first foliage leaves developed, and the above test spray solution was sprayed at the rate of 20 ml/cup onto these cucumber plants. After the chemical solution sprayed onto the cucumber plants was dried, the first foliage leaves were cut off and placed on a water-containing filter paper (70 mm in diameter) in a polyethylene cup (110 mm in diameter). Thirty larvae of western flower thrips (Frankliniella occidentalis) were set free in the polyethylene cup, and the lid was put on the polyethylene cup. After 7 days, the number of surviving insects was examined.", "values": [{"smiles": "CC#CCOc1cc(Cc2c(F)cccc2F)ncn1", "note": "[(80)]", "number of surviving insects": "zero"}, {"smiles": "C#CCOc1cc(Oc2ccccc2)ncn1", "note": "[(51)]", "number of surviving insects": "zero"}, {"smiles": "C#CCOc1cc(OCC#CCC)ncn1", "note": "[(5)]", "number of surviving insects": "zero"}, {"smiles": "CC#CCOc1cc(OC2CCCC(C)C2)ncn1", "note": "(centres unmarked) [(182)]", "number of surviving insects": "zero"}, {"smiles": "CC#CCOc1cc(-c2ccccc2F)ncn1", "note": "[(55)]", "number of surviving insects": "zero"}, {"smiles": "C#CCOc1cc(-c2ccccc2)nc(C)n1", "note": "[(77)]", "number of surviving insects": "zero"}, {"smiles": "C#CCOc1cc(-c2cccc(F)c2F)ncn1", "note": "[(82)]", "number of surviving insects": "zero"}, {"smiles": "C#CCOc1cc(Oc2ccccc2Cl)ncn1", "note": "[(19)]", "number of surviving insects": "zero"}, {"smiles": "CC#CCOc1cc(-c2ccc(F)cc2)ncn1", "note": "[(59)]", "number of surviving insects": "zero"}, {"smiles": "C#CCOc1cc(Oc2cccc(C)c2)ncn1", "note": "[(29)]", "number of surviving insects": "zero"}, {"smiles": "C#CCOc1cc(-c2ccccc2F)ncn1", "note": "[(54)]", "number of surviving insects": "zero"}, {"smiles": "CC#CCOc1cc(-c2cccc(F)c2F)ncn1", "note": "[(83)]", "number of surviving insects": "zero"}, {"smiles": "C#CCOc1cc(OCc2ccccc2)ncn1", "note": "[(13)]", "number of surviving insects": "zero"}, {"smiles": "CC#CCOc1cc(OCC#CCC)ncn1", "note": "[(6)]", "number of surviving insects": "zero"}]}]}
